Data taken from ChEMBL document CHEMBL1201862, “PubChem BioAssay data set” (2004).
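48-hour exposure; five concentrations; linearly interpolated endpoints. GI50: concentration for 50% inhibition of growth.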 The source made the active and inactive calls. Rule as the data show it: active = GI50 up to about 1.1 µM and inactive = higher.

Key:
Experiment in all cases: NCI-60 cell line screen, 48 h
SK-MEL-28 = system: SK-MEL-28
COLO 205 = system: COLO 205
OVCAR-3 = system: OVCAR-3
A549 = system: A549
CCRF-CEM = system: CCRF-CEM
U-251 = system: U-251
DU-145 = system: DU-145
OVCAR-5 = system: OVCAR-5
MOLT-4 = system: MOLT-4
Hs-578T = system: Hs-578T
NCI-H226 = system: NCI-H226
A498 = system: A498
HCT-116 = system: HCT-116
MCF7 = system: MCF7
OVCAR-8 = system: OVCAR-8
SF-539 = system: SF-539
HT-29 = system: HT-29
HCT-15 = system: HCT-15
SN12C = system: SN12C
PC-3 = system: PC-3
SF-268 = system: SF-268
UO-31 = system: UO-31
SNB-19 = system: SNB-19
NCI-H460 = system: NCI-H460
TK-10 = system: TK-10
SNB-75 = system: SNB-75
SW-620 = system: SW-620
BT-549 = system: BT-549
SK-MEL-5 = system: SK-MEL-5
CAKI-1 = system: CAKI-1
HOP-62 = system: HOP-62
K562 = system: K562
SK-OV-3 = system: SK-OV-3
MDA-N = system: MDA-N
HOP-92 = system: HOP-92
T47D = system: T47D
HL-60 = system: HL-60
HCC 2998 = system: HCC 2998
SK-MEL-2 = system: SK-MEL-2
786-0 = system: 786-0
OVCAR-4 = system: OVCAR-4
ACHN = system: ACHN
SF-295 = system: SF-295
M14 = system: M14
LOX IMVI = system: LOX IMVI
MDA-MB-435 = system: MDA-MB-435
SR = system: SR
NCI-H522 = system: NCI-H522
RPMI-8226 = system: RPMI-8226
RXF 393 = system: RXF 393
NCI-H23 = system: NCI-H23
EKVX = system: EKVX
MDA-MB-231 = system: MDA-MB-231
IGROV-1 = system: IGROV-1
KM12 = system: KM12
Malme-3M = system: Malme-3M
NCI/ADR-RES = system: NCI/ADR-RES
UACC-62 = system: UACC-62
UACC-257 = system: UACC-257
LXFL 529 = system: LXFL 529
KM-20L2 = system: KM-20L2
M19-MEL = system: M19-MEL
SNB-78 = system: SNB-78
DMS-114 = system: DMS-114
DMS-273 = system: DMS-273
HOP-18 = system: HOP-18

Measured: GI50

COC(=O)/C=C1/OC(c2ccccc2)=C(Cl)C1=O
8.97 µM: HCT-15
inactive: SK-MEL-28 21.1 µM | COLO 205 15.9 µM | OVCAR-3 16.7 µM | A549 26.4 µM | CCRF-CEM 5.58 µM | U-251 14 µM | DU-145 29 µM | OVCAR-5 19 µM | MOLT-4 5.32 µM | Hs-578T 21.5 µM | NCI-H226 27.5 µM | A498 29.4 µM | HCT-116 13.1 µM | MCF7 16.7 µM | OVCAR-8 21.3 µM | SF-539 19.8 µM | HT-29 22.3 µM | SN12C 23.1 µM | PC-3 15.2 µM | SF-268 19.5 µM | UO-31 20.9 µM | SNB-19 31.3 µM | NCI-H460 25 µM | TK-10 31.9 µM | SNB-75 20.1 µM | SW-620 20.5 µM | BT-549 18.5 µM | SK-MEL-5 14.9 µM | CAKI-1 18.2 µM | HOP-62 25.9 µM | K562 6.07 µM | SK-OV-3 31.6 µM | MDA-N 20.3 µM | HOP-92 20 µM | T47D 19.1 µM | HL-60 3.95 µM | HCC 2998 20.2 µM | SK-MEL-2 21.3 µM | 786-0 18.3 µM | OVCAR-4 20.7 µM | ACHN 17.7 µM | SF-295 27.7 µM | M14 16.9 µM | LOX IMVI 13.6 µM | MDA-MB-435 19.3 µM | SR 4.72 µM | NCI-H522 17.9 µM | RPMI-8226 7.33 µM | RXF 393 15.7 µM | NCI-H23 19.4 µM | EKVX 19.5 µM | MDA-MB-231 18.8 µM | IGROV-1 19.8 µM | KM12 21 µM | Malme-3M 18.4 µM | NCI/ADR-RES 25.9 µM | UACC-62 18 µM | UACC-257 24.9 µM

CCO[C@@H]1OC(=O)[C@](C)(C(C)=O)[C@@H]1C
inactive: SK-MEL-28 37.5 µM | COLO 205 > 100 µM | OVCAR-3 29 µM | CCRF-CEM 14.7 µM | U-251 34.4 µM | OVCAR-5 > 100 µM | MOLT-4 23.3 µM | A498 > 100 µM | SF-539 23.1 µM | LXFL 529 40.6 µM | HT-29 68.4 µM | SF-268 14.7 µM | UO-31 > 100 µM | SNB-19 75.3 µM | NCI-H460 > 100 µM | HOP-62 43.2 µM | K562 44.2 µM | SK-OV-3 59 µM | KM-20L2 > 100 µM | M19-MEL 58.1 µM | HOP-92 27.5 µM | HL-60 17.9 µM | SK-MEL-2 55.2 µM | OVCAR-4 71.9 µM | ACHN > 100 µM | SF-295 36.8 µM | M14 67 µM | SR 27.9 µM | NCI-H522 > 100 µM | RPMI-8226 18.8 µM | RXF 393 41.5 µM | NCI-H23 16.8 µM | SNB-78 33.7 µM | IGROV-1 > 100 µM | KM12 > 100 µM | UACC-62 57.8 µM | UACC-257 > 100 µM | DMS-114 37.2 µM
active: SNB-75 0.21 µM

CC1(C)C(=O)CCC(=O)C(C)(C)C2=CC=C(O2)C(C)(C)C(=O)CCC(=O)C(C)(C)C2=CC=C1O2
inactive: SK-MEL-28 > 100 µM | COLO 205 > 100 µM | OVCAR-3 > 100 µM | A549 > 100 µM | CCRF-CEM > 100 µM | U-251 > 100 µM | OVCAR-5 > 100 µM | MOLT-4 > 100 µM | NCI-H226 > 100 µM | A498 > 100 µM | HCT-116 > 100 µM | OVCAR-8 > 100 µM | LXFL 529 > 100 µM | HT-29 > 100 µM | SF-268 > 100 µM | SNB-19 > 100 µM | NCI-H460 > 100 µM | TK-10 > 100 µM | SW-620 > 100 µM | CAKI-1 > 100 µM | HOP-62 > 100 µM | K562 > 100 µM | SK-OV-3 > 100 µM | KM-20L2 > 100 µM | M19-MEL > 100 µM | HOP-92 76.9 µM | DMS-273 > 100 µM | HL-60 > 100 µM | HCC 2998 > 100 µM | SK-MEL-2 > 100 µM | 786-0 > 100 µM | OVCAR-4 > 100 µM | ACHN > 100 µM | SF-295 > 100 µM | LOX IMVI > 100 µM | SR > 100 µM | NCI-H522 > 100 µM | RXF 393 > 100 µM | NCI-H23 > 100 µM | EKVX > 100 µM | SNB-78 > 100 µM | HOP-18 > 100 µM | IGROV-1 > 100 µM | KM12 > 100 µM | Malme-3M > 100 µM | UACC-257 > 100 µM
> 100 µM: HCT-15
